These results are taken from patent US20240139185A1, “COMPOUNDS THAT PARTICIPATE IN COOPERATIVE BINDING AND USES THEREOF” (Revolution Medicines, Inc., priority 2018, published 2024).

Where two headings read alike, the source gives them in different places. Marks after values point to notes of the source that are not given here.

For series [1] the following is noted: 18-membered ring.
In another series the target is T1, KRAS-G12C (Homo sapiens, UniProt P01116+P62937, G12C).
T1 construct: CypA 1-165 (final concentration 5 μM)
Nature of the series: Percentage of crosslinking to KRAS-G12C in the presence of BME and CYPA (TOF-MS). The series is classed as biochemical. As to conditions: 60 minute incubation; compound 2 μM, CypA 5 μM, G12C-GMPNP 0.5 μM, BME. The method, then:
• 1. 10×Incubation buffer: 125 mM HEPES pH 7.4, 750 mM NaCl, 10 mM MgCl2 • 2. 50 μM Protein A stock (CypA) in incubation buffer • 3. 5 μM Protein B (G12C-GMPNP) stock in incubation buffer • 4. 20 μM compound stock in 1×Incubation buffer with 10% DMSO • 5. 25 mM BME stock solution (prepared by diluting the BME stock in Milli Q water)
CypA 1-165 (final concentration 5 μM), test compound (final concentration 2 μM) and G12C-GMPNP (final concentration 0.5 μM) were incubated in the incubation buffer ([…]) for the requisite amount of time at room temperature. The samples were quenched with formic acid, final concentration 0.5%. 10 μL aliquots were injected to TOF-MS.
Sequence of Addition for a Final Incubation Volume of 50 μL • 1. 5 μL 10×incubation buffer • 2. 28 ul H2O • 3. 2 μL from 25 mM BME stock • 4. 5 μL CypA at 50 uM • 5. 5 μL from 5 μM G12C-GMPNP • 6. 5 μL compound from 20 μM compound stock
LC-MS is performed on an Agilent 6230 TOF-LC mass spectrometer equipped with an electrospray probe operated in positive ionization mode. 10 μL samples are injected on a Sepax Bio-C4, 300 Å, 2.1×100 mm column. The mobile phase is 0.1% (vol/vol) formic acid and 0.1% 1 mM ammonium formate in 95% water, 4.8% acetonitrile (A) and 0.1% (vol/vol) formic acid and 0.1% 1 mM ammonium formate in 95% acetonitrile and 4.8% water (B). The separation is performed by a 9 min total gradient consisting of 5 min linear gradient from 25% to 50% B, and a wash at 100% B for 1.25 min, all at a flow rate of 0.6 mL/min (see attached timetable below). Mass spectrometer source conditions were capillary voltage, 4,000 V; cone voltage, 120 V; source temperature, 275° C.; scan range, 100-2,000 a.m.u. with a cycle time of 1 s.
The observed mass is generated by averaging the major peak in the total ion current (TIC). The charge-state series of the species are deconvoluted using Agilent MassHunter Bioconfirm using maximum entropy setting (range is set to 17000-23000 Da). […]

For another series, the target named is T2, BRAF-GTP-KRASWT complex (Homo sapiens, UniProt P01116+P62937).
T2 construct: substitute His6-KRas WT-GTP (1-169) for His6-KRas G12C-GTP (1-169); 500 nM of tagless CypA (1-165)
Kind of series: KRAS-BRAF complex disruption TR-FRET with wild-type KRAS (G12C specificity). The series is classed as biochemical. As to conditions: with CYPA. The method, then:
(§1) In this example, TR-FRET was used to measure the compound-facilitated disruption of a KRAS-BRAF complex. A mixture of tagless Cyclophilin A, His6-KRAS G12C-GMP-PNP, and GST-BRAF RAS binding domain was added to a 384-well assay plate containing compounds of the invention and incubated for 3 hours. A mixture of Anti-His Eu-W1024 and anti-GST allophycocyanin was then added and the reaction was incubated for an additional 1.5 hours. TR-FRET signal was read on an EnVision microplate reader (Perkin Elmer, Ex 320 nm, Em 665/615 nm). Compounds that facilitate disruption of a KRAS_BRAF complex were identified as those eliciting a decrease in the TR-FRET ratio relative to DMSO control wells. To determine the presenter-dependence of the compound-mediated KRAS-BRAF complex disruption, Cyclophilin A was left out of the initial incubation (see Table 5). To determine G12C specificity of the compound-mediated KRAS-BRAF complex disruption, wild-type KRAS was used instead of G12C KRAS (see Table 5).
(§2) Reagents and Instrument • Tagless CYPA; 519 μM in PBS buffer, pH 7.4 • GST BRAF; 110 μM in PBS buffer, pH 7.4 • His6-KRASG12C-GMP-PNP; 50 μM in PBS buffer, pH 7.4 • His6-KRASWT-GMP-PNP; 40 μM in PBS buffer, pH 7.4 • Anti-His Eu-W1024 (LANCE® Eu-W1024; Perkin Elmer) • Anti-GST allophycocyanin (Anti-GST IgG conjugated to SureLight®-Allophycocyanin; Perkin Elmer; Product Number AD0059G) • Test compounds, 10 mM in 100% DMSO • EnVision (Perkin Elmer) • Combi MultiDrop liquid dispenser with 8-channel small volume cassette • 384-well ProxiPlate (black)
(§3) Experimental Protocol • 1. Use Mosquito to dispense 100 nL/well of compounds (varying concentration in […]) into 384-well black ProxiPlate to make assay-ready-plate (ARP). • 2. Make assay buffer containing 25 mM Hepes pH 7.3, 100 mM NaCl, 5 mM MgCl2, 0.05% BSA, and 0.002% Tween-20. • 3. Make PRE-MIX A: delivers final concentrations of 50 nM of His6-KRas G12C-GTP (1-169) and 500 nM of tagless CypA (1-165) in assay buffer. • a. […] Read on EnVision (Ex: 320 nm; Em1: 615 nm; Em2: 665 nm). • 8. […]
Background: In TR-FRET formats the signal depends on donor and acceptor labels being close together.

Series [2] addresses T3, BRAF-GTP-KRAS-G12C complex (Homo sapiens, UniProt P01116+P62937, G12C).
T3 construct: 50 nM of His6-KRas G12C-GTP (1-169); 500 nM of tagless CypA (1-165)
Nature of the series: KRAS-BRAF complex disruption through competition with CYPA-compound by TR-FRET. As to conditions: biochemical BRAF-KRAS G12C-GTP disruption assay EC50, with CYPA. A digest of the protocol: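 His6-KRAS G12C-GTP (1-169, 50 nM) with tagless CypA (1-165, 500 nM) was incubated with compound for 3 h at room temperature in pH 7.3 Hepes/NaCl/MgCl2 buffer containing GST-BRAF RBD. Anti-His Eu (10 nM) and anti-GST APC (50 nM) were then added for 1.5 h, and the 665/615 nm TR-FRET ratio was read. EC50 from 4-parameter fit; for specificity, wild-type KRAS replaced G12C, and CypA was omitted to test presenter dependence.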

Series [3] concerns the target T4, BRAF-GTP-KRAS-G12C complex (Homo sapiens, UniProt P01116, G12C).
T4 construct: 50 nM of His6-KRas G12C-GTP (1-169)
Nature of the series: KRAS-BRAF complex disruption TR-FRET without CYPA (presenter dependence). The series is classed as biochemical. The method, then:
as §1, §2, §3

The target of a further series is cyclophilin A (CYPA) (Homo sapiens, UniProt P62937). Nature of the series: CYPA-compound binary complex formation by SPR. The note with it: read-out: CYPA Binding Affinity. A digest of the protocol:
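CypA-Avi captured on a Biotin CAPture chip (4 μg/ml), reference flow cell subtracted. Compounds injected as 10-point 2-fold dilutions from 50 μM in HBS-P+ pH7.4 with 2% DMSO; 60 s association and 60 s dissociation, solvent-corrected. Affinity obtained by steady-state fitting.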

The subject of a further series is pERK in H358 cells. Kind of series: pERK inhibition in H358 cells. The series is classed as cell-based, human. As to conditions: 4 hours treatment, read-out: Cellular pERK inhibition. A digest of the protocol:
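Human lung cancer H358 cells in RPMI/10% FBS were exposed to compound or DMSO for 4 h. Fixed and permeabilized cells were stained overnight at 4 C with anti-phospho-ERK1/2 (Thr202/Tyr204). Near-infrared imaging read the pERK signal at 800 nm, with DRAQ5 at 700 nm.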

As a reminder, the EC50 is the concentration needed to bring the measured effect to its halfway point. High values mean weaker potency, low ones greater potency.

For the compound `CC(C)[Si](Oc1cc2cc(c1)-c1ccc3c(Br)cn(c3c1)C[C@H](C)COC(=O)[C@@H]1CCCN(N1)C(=O)[C@@H](NC(=O)OC(C)(C)C)C2)(C(C)C)C(C)C`, in series [1] (from CC(C)[Si](Oc1cc(C[C@H](NC(=O)OC(C)(C)C)C(=O)N2CCC[C@@H](C(=O)O)N2)cc(-c2ccc3c(Br)cn(C[C@H](C)CO)c3c2)c1)(C(C)C)C(C)C, ester bond, EDCI/HOBt/DIEA, DCM, 122.5 mM, 25.0 °C, 16.0 h), the ring closure, isolated yield is 59%.

Take `CC(C)[Si](Oc1cc2cc(c1)-c1ccc3c(C#N)cn(c3c1)CC(C)(C)CNC(=O)[C@@H]1CCCN(N1)C(=O)[C@@H](NC(=O)OC(C)(C)C)C2)(C(C)C)C(C)C`: in series [1] (from CC(C)[Si](Oc1cc(C[C@H](NC(=O)OC(C)(C)C)C(=O)N2CCC[C@@H](C(=O)NCC(C)(C)Cn3cc(C#N)c4ccc(Br)cc43)N2)cc(B2OC(C)(C)C(C)(C)O2)c1)(C(C)C)C(C)C, cc_pd bond, Pd(dppf)Cl2.CH2Cl2/K2CO3, dioxane/H2O 5:1, 22.9 mM, 80.0 °C, 2.0 h), the ring closure, isolated yield stood at 53%.

In the case of `CC(C)[C@@H](C(=O)N[C@H]1Cc2cc(O)cc(c2)-c2ccc3nc(-c4cccnc4)n(c3c2)CCCOC(=O)[C@@H]2CCCN(N2)C1=O)N(C)C(=O)C1CN(C(=O)CCl)C1` [Compound 169], the “% Crosslinking with KRAS-G12C-GTP in presence of CYPA” value on KRAS-G12C is given as 39^‡ %. Further, the IC50 (against BRAF-GTP-KRASWT complex; in series [3]) was > 30 µM throughout. The compound also came in with a concentration giving a half-maximal response (EC50) in series [2] of 0.5 to 5 µM. In addition, on cyclophilin A (CYPA), the Kd is ≤ 5 µM.

For `C=CC(=O)N1CCC(C(=O)N(C)C(C(=O)NC2Cc3cc(O)cc(c3)-c3ccc4c(c3)c(cn4C(C)(C)C#N)CC(C)(C)COC(=O)C3CCCN(N3)C2=O)C2CCCC2)C1` (stereo not shown) [Compound 395], the EC50 in series [2] fell in the range of 0.5 to 5 µM. At cyclophilin A (CYPA), the Kd is ≤ 5 µM. Besides, the IC50 in the series with pERK in H358 cells was ≤ 1 µM.

On to `C=CC(=O)N1CCC(C(=O)N(C)C(C(=O)NC2Cc3cc(O)cc(c3)-c3ccc4c(c3)c(c(C#N)n4CC)CC(C)(C)COC(=O)C3CCCN(N3)C2=O)C2CCCC2)C1` (stereo not shown) [Compound 397], for which the half-maximal effective concentration (EC50) in series [2] was ≤ 0.5 µM. Also, the Kd on cyclophilin A (CYPA) was ≤ 5 µM. In addition, the IC50 with pERK in H358 cells is ≤ 1 µM.

Compound `C=CC(=O)N1CCC(C(=O)N(C)C(C(=O)NC2Cc3cc(O)cc(c3)-c3ccc4c(c3)N(CC(C)(C)COC(=O)C3CCCN(N3)C2=O)CC4(C)COC)C2CCCC2)C1` (stereo not shown) [Compound 398] registered a concentration giving a half-maximal response (EC50) in series [2] of 0.5 to 5 µM. The Kd on cyclophilin A (CYPA) was ≤ 5 µM. Besides, the IC50 in the series with pERK in H358 cells is ≤ 1 µM.

For `C=CC(=O)N1CCC(C(=O)N(C)C(C(=O)NC2Cc3cc(O)cc(c3)-c3ccc4c(c3)c(c(C#N)n4CCOC)CC(C)(C)COC(=O)C3CCCN(N3)C2=O)C(C)C)C1` (stereo not shown) [Compound 400], the concentration for a half-maximal effect (EC50) in series [2] is ≤ 0.5 µM. Also, the Kd at cyclophilin A (CYPA) lay in the range of 5 to 15 µM. The IC50 in the series with pERK in H358 cells was in the range of 1 to 10 µM.

Regarding `C=CC(=O)N1CCC(C(=O)N(C)C(C(=O)NC2Cc3cc(O)cc(c3)-c3ccc4c(c3)N(CC(C)(C)COC(=O)C3CCCN(N3)C2=O)CC4(C=CC#N)COC)C(C)C)C1` (stereo not shown) [Compound 404], in series [2], the EC50 was ≤ 0.5 µM. Also, the Kd at cyclophilin A (CYPA) is > 15 µM. In the series with pERK in H358 cells, the IC50 lay within 1 to 10 µM.

Consider `C=CC(=O)N1CCC(C(=O)N(C)C(C(=O)NC2Cc3cc(O)cc(c3)-c3ccc4c(c3)c(cn4C(C#N)(CC)CC)CC(C)(C)COC(=O)C3CCCN(N3)C2=O)C(C)CC)C1` (stereo not shown) [Compound 405], for which the EC50 in series [2] lay within 0.5 to 5 µM. In addition, the Kd on cyclophilin A (CYPA) fell in the range of 5 to 15 µM. Further, the IC50 with pERK in H358 cells is ≤ 1 µM.
